ChEMBL document CHEMBL1201862, “PubChem BioAssay data set” (2004)
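How tested: cells in 96-well plates exposed to compound for 48 hours at five concentrations. Here, GI50 denotes the concentration required for 50% inhibition of growth.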 Active and inactive are the calls of the source. Cut-off read from the data, not from the text of the source: active = GI50 up to about 1.1 µM and inactive = higher.

What was measured:
Experiment in all cases: NCI anticancer screen, dose series, 48 h
A549 = system: A549
ACHN = system: ACHN
EKVX = system: EKVX
HCC 2998 = system: HCC 2998
HOP-92 = system: HOP-92
KM12 = system: KM12
MCF7 = system: MCF7
NCI-H23 = system: NCI-H23
NCI-H460 = system: NCI-H460
NCI/ADR-RES = system: NCI/ADR-RES
RPMI-8226 = system: RPMI-8226
SF-295 = system: SF-295
SK-MEL-5 = system: SK-MEL-5
SNB-19 = system: SNB-19
TK-10 = system: TK-10
UACC-257 = system: UACC-257
UO-31 = system: UO-31
T47D = system: T47D

Measured: GI50

Cc1ccc(NC(S)=Nc2c(C)n(C)n(-c3ccccc3)c2=O)cc1
inactive: A549 > 100 µM | ACHN > 100 µM | EKVX > 100 µM | HCC 2998 > 100 µM | HOP-92 > 100 µM | KM12 > 100 µM | MCF7 > 100 µM | NCI-H23 > 100 µM | NCI-H460 > 100 µM | NCI/ADR-RES > 100 µM | RPMI-8226 > 100 µM | SF-295 > 100 µM | SK-MEL-5 > 100 µM | SNB-19 > 100 µM | TK-10 > 100 µM | UACC-257 > 100 µM | UO-31 > 100 µM

COc1cc2c(c(OC)c1OC)C(=O)[C@H](O)[C@H]2NC(N)=O
inactive: A549 > 100 µM | ACHN 34.1 µM | EKVX 99.5 µM | HCC 2998 > 100 µM | KM12 > 100 µM | MCF7 > 100 µM | NCI-H23 53.8 µM | NCI-H460 66.8 µM | NCI/ADR-RES > 100 µM | RPMI-8226 > 100 µM | SF-295 > 100 µM | SK-MEL-5 40.7 µM | SNB-19 > 100 µM | TK-10 > 100 µM | UACC-257 85.5 µM | UO-31 > 100 µM

CC1=CC[C@@H]2[C@@H](CC[C@@]2(C)O)C(C)(C)[C@H]1CC[C@@H]1[C@@]2(C)CC[C@@H](O)C(C)(C)O[C@@H]2CC[C@]1(C)O
inactive: A549 27.3 µM | ACHN 23.2 µM | HCC 2998 17.5 µM | HOP-92 12.5 µM | MCF7 31 µM | NCI-H23 24.5 µM | NCI-H460 17.7 µM | RPMI-8226 18.9 µM | SF-295 33.1 µM | SK-MEL-5 13.3 µM | SNB-19 14.2 µM | T47D 39.2 µM | TK-10 35.6 µM | UACC-257 25.6 µM | UO-31 17 µM

C[C@@H](c1ccccc1)n1c(N)c(C#N)c2ccc([N+](=O)[O-])cc2c1=O
inactive: A549 > 100 µM | ACHN 14.9 µM | HCC 2998 15.5 µM | HOP-92 7.13 µM | KM12 16.7 µM | NCI-H23 18.9 µM | NCI-H460 14.5 µM | NCI/ADR-RES 7.1 µM | SK-MEL-5 16.7 µM | SNB-19 13.6 µM | T47D 15.7 µM | TK-10 11.6 µM | UACC-257 18.7 µM | UO-31 5.12 µM

CC1=C(C(N)=O)C(c2ccncc2)C(C#N)C(=O)N1 (configuration not stated)
inactive: ACHN > 100 µM | EKVX > 100 µM | HCC 2998 > 100 µM | HOP-92 > 100 µM | KM12 > 100 µM | MCF7 > 100 µM | NCI-H23 > 100 µM | NCI-H460 > 100 µM | RPMI-8226 > 100 µM | SF-295 > 100 µM | SK-MEL-5 > 100 µM | SNB-19 > 100 µM | T47D > 100 µM | TK-10 > 100 µM | UACC-257 > 100 µM | UO-31 > 100 µM

CCCCCCCC(CC(=O)NC(CO)C(=O)NC(CO)CC(C)C)OC(=O)CC(CCCCCCC)OC(=O)CC(CCCCCCC)OC1OC(C)C(O)C(OC2OC(C)C(O)C(O)C2OC(C)=O)C1O (configuration not stated)
inactive: A549 12.3 µM | ACHN 15.5 µM | EKVX 14.3 µM | HCC 2998 12.5 µM | HOP-92 10.2 µM | KM12 2.74 µM | MCF7 10.5 µM | NCI-H23 7.8 µM | NCI-H460 4.07 µM | SF-295 10 µM | SK-MEL-5 10.1 µM | SNB-19 8.26 µM | T47D 6.52 µM | TK-10 13.3 µM | UACC-257 2.99 µM | UO-31 16.9 µM

C=C(Br)C[N+]12CN3CN(CN(C3)C1)C2
inactive: A549 > 100 µM | ACHN > 100 µM | EKVX > 100 µM | HCC 2998 > 100 µM | HOP-92 > 100 µM | KM12 > 100 µM | NCI-H23 > 100 µM | NCI-H460 > 100 µM | NCI/ADR-RES > 100 µM | RPMI-8226 > 100 µM | SF-295 > 100 µM | SK-MEL-5 > 100 µM | SNB-19 > 100 µM | T47D > 100 µM | UACC-257 > 100 µM | UO-31 > 100 µM

CNC(=S)NNc1ncnc2c1c(-c1ccc(Cl)cc1)cn2-c1ccc(C)cc1
inactive: A549 4.67 µM | ACHN 10 µM | EKVX 13.8 µM | HOP-92 15.5 µM | KM12 7.71 µM | NCI-H23 13.2 µM | NCI-H460 1.95 µM | NCI/ADR-RES 11.6 µM | RPMI-8226 3.13 µM | SF-295 6.05 µM | SK-MEL-5 5.89 µM | SNB-19 17.6 µM | T47D 8.49 µM | TK-10 18.8 µM | UACC-257 12.9 µM | UO-31 10.9 µM

CCOC(=O)C(=Cc1ccccc1Cl)C(=O)OCC
inactive: A549 2.21 µM | ACHN 2.61 µM | EKVX 3.03 µM | HCC 2998 > 10 µM | HOP-92 2.88 µM | KM12 1.31 µM | NCI-H23 1.66 µM | NCI-H460 3.21 µM | NCI/ADR-RES 2 µM | RPMI-8226 1.56 µM | SF-295 2.47 µM | SK-MEL-5 2.06 µM | SNB-19 1.84 µM | T47D 2.64 µM | UACC-257 1.82 µM | UO-31 1.71 µM
